The test system of assay [1] is Candida albicans. The experiment in a line: Antifungal activity against Candida albicans incubated for 24 hrs by turbidimetric method. The assay is classed as functional.
Assay [2] relates to Candida albicans. Briefly: Antifungal activity against Candida albicans ATCC 262 incubated for 24 hrs by turbidimetric method. The assay is classed as functional.
For assay [3], the system named is Candida albicans. Briefly: Antifungal activity against Candida albicans K1133 by agar incorporation method. The assay is classed as functional.
Assay [4] relates to Candida tropicalis. The experiment in a line: Antifungal activity against Candida tropicalis K337 by agar incorporation method. It counts as functional.
The subject of assay [5] is Candida albicans. Briefly: Antifungal activity against Candida albicans K341 by agar incorporation method. It counts as functional.
Assay [6] relates to Meyerozyma guilliermondii. The experiment in a line: Antifungal activity against Candida guilliermondii K334 by agar incorporation method. It counts as functional.
Assay [7] deals with Candida albicans. Briefly: Antifungal activity against Candida albicans K335 by agar incorporation method. It counts as functional.
Assay [8] concerns Candida parapsilosis. The experiment in a line: Antifungal activity against Candida parapsilosis K1154 by agar incorporation method. It counts as functional. The settings on record: Lodderomyces parapsilosis.
In assay [9] the test system is Candida albicans. The experiment in a line: Antifungal activity against Candida albicans K1082 by agar incorporation method. It counts as functional.
The test system of the next assay is Cyberlindnera jadinii. The experiment in a line: Antifungal activity against Candida utilis K482 by agar incorporation method. It counts as functional. The note with it: Williopsis jadinii.
The subject of assay [10] is Candida parapsilosis. Briefly: Antifungal activity against Candida parapsilosis K332 by agar incorporation method. The settings on record: Lodderomyces parapsilosis. The assay is classed as functional.
The test system of assay [11] is Candida tropicalis. The experiment in a line: Antifungal activity against Candida tropicalis K1155 by agar incorporation method. The assay is classed as functional.
The subject of the next assay is Pichia kudriavzevii. The experiment in a line: Antifungal activity against Candida krusei K1153 by agar incorporation method. The assay is classed as functional.
A short description of assay [12]: Inhibition of Candida albicans IFO1060 1,3-beta-D-glucan synthase.
Assay [13] concerns Candida albicans. The experiment in a line: Antifungal activity against Candida albicans Ca2323/ORF6.945 by CLSI method. The assay is classed as functional.
For assay [14], the system named is Candida parapsilosis. Briefly: Antifungal activity against Candida parapsilosis ATCC22019 by CLSI method. The assay is classed as functional. The settings on record: Lodderomyces parapsilosis.
In assay [15] the test system is Candida albicans. Briefly: Antifungal activity against Candida albicans Ca1055 by CLSI method. The assay is classed as functional.
Assay [16] relates to Candida albicans. Briefly: Antifungal activity against Candida albicans AMB-25 incubated for 48 hrs by serial two-fold dilution method. The assay is classed as functional.
Another assay deals with Aspergillus fumigatus. The experiment in a line: Antifungal activity against Aspergillus fumigatus CF1083 infected in iv dosed mouse model of pulmonary aspergillosis administered once daily for 4 days and measured on day 14. It counts as functional. The note with it: 336 h, time 14 day.
Assay [17] in a line: Inhibition of fungi 1,3-beta-D-glucan synthase.

pIC50: −log10 of the molar value. In brackets after ≈: the same amount, converted by molar mass. Square brackets hold non-standard residues; d marks the D form. Peptide text beside a SMILES is read from it. * marks the point of attachment. Fumaryl(OMe) = COC(=O)/C=C/C(=O)*; Dap = NC[C@H](N)C(=O)O

These results are taken from ChEMBL document CHEMBL4715849, “Recent Progress in the Discovery of Antifungal Agents Targeting the Cell Wall” (J Med Chem, 2020).

Regarding `COC(=O)/C=C/C(=O)NC[C@H](NC(=O)[C@H](CCSC)NC(=O)[C@H](CCSC)NC(=O)[C@@H](N)CNC(=O)/C=C/C(=O)OC)C(=O)O` (H-[Dap](Fumaryl(OMe))MM[Dap](Fumaryl(OMe))-OH), the MIC in the assay with Candida albicans [1] and against Candida albicans [2] was 0.025 µg/mL (≈ 0.0369 µM) in each case.

Take `COC(=O)/C=C/C(=O)NC[C@H](NC(=O)[C@H](CCSC)NC(=O)[C@@H](N)CNC(=O)/C=C/C(=O)OC)C(=O)O`: the MIC with Candida albicans [1] and with Candida albicans [2] was 0.025 µg/mL (≈ 0.0458 µM) in each case.

`COC(=O)/C=C/C(=O)NC[C@H](NC(=O)[C@H](CCSC)NC(=O)[C@H](CCSC)NC(=O)[C@H](CCSC)NC(=O)[C@@H](N)CCSC)C(=O)O` (H-MMMM[Dap](Fumaryl(OMe))-OH): the minimal inhibitory concentration (MIC) in the assay with Candida albicans [1] and against Candida albicans [2] was 0.025 µg/mL (≈ 0.0337 µM) each time.

As for `CCC(O)/C=C/C=C/C=C/C(=O)OC[C@H]1O[C@@H](O[C@H]2[C@H](OC(=O)/C=C/C=C/C[C@H](O)/C(C)=C/C=C/CC[C@@H](C)CC)[C@@H](O)[C@@]3(OCc4cc(O)cc(O)c43)O[C@@H]2CO)[C@H](O)[C@@H](O)[C@H]1O` (some centres undefined), the minimal inhibitory concentration (MIC) (against Candida albicans [3]; against Candida tropicalis [4]; in the assay on Candida albicans [5]; in assay [6]; in the assay with Candida albicans [7]; against Candida parapsilosis [8]) was 0.1 µg/mL (≈ 0.111 µM) in each case. For the same compound, the MIC in the assay on Candida albicans [9], against Cyberlindnera jadinii, in the assay on Candida parapsilosis [10], in the assay with Candida tropicalis [11] and against Pichia kudriavzevii was 0.1 µg/mL (≈ 0.111 µM) throughout.

Regarding `CCCCCCCCCCCCC[C@H]1OC(=O)[C@H](CCCNC(=O)[C@H](N)CCCN)NC(=O)[C@@H]([C@@H](C)O)NC(=O)CNC(=O)[C@H]([C@H](O)CC(N)=O)NC(=O)[C@H]2[C@@H](O)CCN2C(=O)[C@H]([C@@H](C)O)NC(=O)[C@@H]2C[C@@H](O)CN2C(=O)[C@H](C(C)C)NC(=O)[C@H](Cc2ccc(O)cc2)NC(=O)[C@@H](C)NC(=O)[C@H]([C@@H](C)O)NC1=O`, the pIC50 in [12] was 8.30.

Consider `CCCC(C)Oc1cccc(NC(=O)c2cccnc2)c1` (centres undefined), for which the minimum inhibitory concentration (MIC) against Candida albicans [13] worked out at 4 µg/mL (≈ 14.1 µM); against Candida parapsilosis [14], 8 µg/mL (≈ 28.1 µM); against Candida albicans [15], 4 µg/mL (≈ 14.1 µM).

Consider `COC(=O)/C=C/C(=O)NC[C@H](NC(=O)[C@H](CCSC)NC(=O)[C@@H](N)CCSC)C(N)=O`, for which the MIC with Candida albicans [1] and against Candida albicans [2] was 0.025 µg/mL (≈ 0.0523 µM) throughout.

On to `COC(=O)/C=C/C(=O)NC[C@H](NC(=O)[C@H](N)Cc1ccccc1)C(=O)O`, for which it took 0.4 µg/mL (≈ 1.1 µM) to inhibit growth against Candida albicans [16] (MIC).

Compound `COC(=O)/C=C/C(=O)NC[C@H](NC(=O)[C@H](N)C(C)C)C(=O)O` showed an MIC against Candida albicans [16] of 0.4 µg/mL (≈ 1.27 µM).

Compound `COC(=O)/C=C/C(=O)NC[C@H](NC(=O)[C@H](N)Cc1ccc(O)cc1)C(=O)O` came in with an MIC in the assay with Candida albicans [16] of 0.4 µg/mL (≈ 1.05 µM).

Turning to `COC(=O)/C=C/C(=O)NC[C@H](NC(=O)[C@H](N)CCSC)C(=O)O`, the MIC against Candida albicans [16] stood at 0.4 µg/mL (≈ 1.15 µM).

`COC(=O)/C=C/C(=O)NC[C@H](N)C(=O)N[C@@H](Cc1ccccc1)C(=O)O` displayed an MIC in the assay with Candida albicans [16] of 0.4 µg/mL (≈ 1.1 µM).

In the assay with Candida albicans [16], `CCCCC(N)C(=O)N[C@@H](CNC(=O)/C=C/C(=O)OC)C(=O)O` (some centres undefined) showed an MIC of 0.4 µg/mL (≈ 1.21 µM).

In turn, `CCC(N)C(=O)N[C@@H](CNC(=O)/C=C/C(=O)OC)C(=O)O` (some centres undefined) yielded an MIC with Candida albicans [16] of 0.4 µg/mL (≈ 1.33 µM).

Regarding `COC(=O)/C=C/C(=O)NC[C@H](NC(=O)[C@H](C)N)C(=O)N[C@@H](C)C(=O)O`, the MIC in the assay with Candida albicans [1] and against Candida albicans [2] was 0.025 µg/mL (≈ 0.0698 µM) each time.

For the compound `CCCCCCCCCCCCC[C@H]1OC(=O)[C@H](CCCN(CCCN)C(=O)[C@@H](CCCN)N(CCN)CCN)NC(=O)[C@@H]([C@@H](C)O)NC(=O)CNC(=O)[C@H]([C@H](O)CC(N)=O)NC(=O)[C@H]2[C@@H](O)CCN2C(=O)[C@H]([C@@H](C)O)NC(=O)[C@@H]2C[C@@H](O)CN2C(=O)[C@H](C(C)C)NC(=O)[C@H](Cc2ccc(O)cc2)NC(=O)[C@@H](C)NC(=O)[C@H]([C@@H](C)O)NC1=O`, the ED50 with Aspergillus fumigatus is 5.2 mg/kg. The compound also showed a pIC50 in assay [17] of 9.55.

In the case of `COC(=O)/C=C/C(=O)NC[C@H](NC(=O)CN)C(=O)O`, inhibition of growth against Candida albicans [16] (MIC) required 0.4 µg/mL (≈ 1.46 µM).

For `CCCCCCCCCCCCC[C@H]1OC(=O)[C@H](CCCN(CCCN)C(=O)[C@H](CCCN)N(CCN)CCN)NC(=O)[C@@H]([C@@H](C)O)NC(=O)CNC(=O)[C@H]([C@H](O)CC(N)=O)NC(=O)[C@H]2[C@@H](O)CCN2C(=O)[C@H]([C@@H](C)O)NC(=O)[C@@H]2C[C@@H](O)CN2C(=O)[C@H](C(C)C)NC(=O)[C@H](Cc2ccc(O)cc2)NC(=O)[C@@H](C)NC(=O)[C@H]([C@@H](C)O)NC1=O`, in the assay with Aspergillus fumigatus, the ED50 turned out to be 5.2 mg/kg. This compound had a pIC50 in assay [17] of 9.60.

Turning to `CCC[C@H](NC(=O)[C@H](CNC(=O)/C=C/C(=O)OC)NC(=O)[C@@H](N)CCC)C(=O)O`, the MIC against Candida albicans [1] came out at 0.025 µg/mL (≈ 0.0603 µM); with Candida albicans [2], 0.05 µg/mL (≈ 0.121 µM).
